ChEMBL document CHEMBL1122718, “Benzylamines: synthesis and evaluation of antimycobacterial properties” (1984)

Assays:
Type in all cases: functional
[1] = system: Mycobacterium tuberculosis; assay: Fractional inhibitory concentration (FIC) was determined for the compound in combination of Benzaldehyde thiosemicarbazone
[2] = system: Mycobacterium tuberculosis; assay: Fractional inhibitory concentration (FIC) was determined for the compound in combination of Dapsone
[3] = system: Mycobacterium tuberculosis; assay: Compound was evaluated for the synergistic effect in combination with benzaldehyde thiosemicarbazone for the inhibition of Mycobacterium tuberculosis H 37 Ra, using middlebrook 7H9 medium (liquid)
[4] = system: Mycobacterium tuberculosis; assay: Fractional inhibitory concentration (FIC) was determined for the compound in combination of Tetracycline hydrochloride
[5] = system: Mycobacterium tuberculosis; assay: Compound was evaluated for the synergistic effect in combination with ethambutol for the inhibition of Mycobacterium tuberculosis H 37 Ra, using middlebrook 7H9 medium (liquid)
[6] = system: Mycobacterium tuberculosis; assay: Fractional inhibitory concentration (FIC) was determined for the compound in combination of Rifampicin
[7] = system: Mycobacterium tuberculosis; assay: Compound was evaluated for the synergistic effect in combination with aminosalicylic acid for the inhibition of Mycobacterium tuberculosis H 37 Ra, using middlebrook 7H9 medium (liquid)
Mycobacterium marinum = assay: Minimum inhibitory concentration (MIC) of compound against Mycobacterium marinum SN 1254
[8] = system: Mycobacterium tuberculosis; assay: Fractional inhibitory concentration (FIC) was determined for the compound in combination of Isoniazid
[9] = system: Mycobacterium tuberculosis; assay: Compound was evaluated for the synergistic effect in combination with ethionamide for the inhibition of Mycobacterium tuberculosis H 37 Ra, using middlebrook 7H9 medium (liquid)
[10] = system: Mycobacterium tuberculosis; assay: Compound was evaluated for the synergistic effect in combination with cycloserine for the inhibition of Mycobacterium tuberculosis H 37 Ra, using Lowenstein-Jensen medium (solid)
[11] = system: Mycobacterium tuberculosis; assay: Compound was evaluated for the synergistic effect in combination with tetracycline hydrochloride for the inhibition of Mycobacterium tuberculosis H 37 Ra, using middlebrook 7H9 medium (liquid)
[12] = system: Mycobacterium tuberculosis; assay: Compound was evaluated for the synergistic effect in combination with capreomycin for the inhibition of Mycobacterium tuberculosis H 37 Ra, using Lowenstein-Jensen medium (solid)
[13] = system: Mycobacterium tuberculosis; assay: Compound was evaluated for the synergistic effect in combination with ethionamide for the inhibition of Mycobacterium tuberculosis H 37 Ra, using Lowenstein-Jensen medium (solid)
[14] = system: Mycobacterium tuberculosis; assay: Compound was evaluated for the synergistic effect in combination with tetracycline hydrochloride for the inhibition of Mycobacterium tuberculosis H 37 Ra, using Lowenstein-Jensen medium (solid)
[15] = system: Mycobacterium tuberculosis; assay: Compound was evaluated for the synergistic effect in combination with rifampicin for the inhibition of Mycobacterium tuberculosis H 37 Ra, using Lowenstein-Jensen medium (solid)
[16] = system: Mycolicibacterium smegmatis; assay: Minimum inhibitory concentration (MIC) of compound against Mycobacterium smegmatis ATCC 607
[17] = system: Mycobacterium tuberculosis; assay: Fractional inhibitory concentration (FIC) was determined for the compound in combination of Capreomycin
[18] = system: Mycobacterium tuberculosis; assay: Compound was evaluated for the synergistic effect in combination with streptomycin sulfate for the inhibition of Mycobacterium tuberculosis H 37 Ra, using middlebrook 7H9 medium (liquid)
[19] = system: Mycobacterium tuberculosis; assay: Compound was evaluated for the synergistic effect in combination with trimethoprim for the inhibition of Mycobacterium tuberculosis H 37 Ra, using middlebrook 7H9 medium (liquid)
[20] = system: Mycobacterium tuberculosis; assay: Compound was evaluated for the synergistic effect in combination with isoniazid for the inhibition of Mycobacterium tuberculosis H 37 Ra, using middlebrook 7H9 medium (liquid)
[21] = system: Mycobacterium tuberculosis; assay: Compound was evaluated for the synergistic effect in combination with ethambutol for the inhibition of Mycobacterium tuberculosis H 37 Ra, using Lowenstein-Jensen medium (solid)
[22] = system: Mycobacterium tuberculosis; assay: Fractional inhibitory concentration (FIC) was determined for the compound in combination of Cycloserine
[23] = system: Mycobacterium tuberculosis; assay: Fractional inhibitory concentration (FIC) was determined for the compound in combination of Aminosalicylic acid
[24] = system: Mycobacterium tuberculosis; assay: Fractional inhibitory concentration (FIC) was determined for the compound in combination of trimethoprim
[25] = system: Mycobacterium tuberculosis; assay: Compound was evaluated for the synergistic effect in combination with dapsone for the inhibition of Mycobacterium tuberculosis H 37 Ra, using middlebrook 7H9 medium (liquid)
[26] = system: Mycobacterium tuberculosis; assay: Compound was evaluated for the synergistic effect in combination with cycloserine for the inhibition of Mycobacterium tuberculosis H 37 Ra, using middlebrook 7H9 medium (liquid)
[27] = system: Mycobacterium tuberculosis; assay: Compound was evaluated for the synergistic effect in combination with rifampicin for the inhibition of Mycobacterium tuberculosis H 37 Ra, using middlebrook 7H9 medium (liquid)
[28] = system: Mycobacterium tuberculosis; assay: Minimum inhibitory concentration (MIC) against Mycobacterium tuberculosis H 37 Ra
Mycobacterium lufu = assay: Minimum inhibitory concentration (MIC) of compound against Mycobacterium lufu L 209
[29] = system: Mycobacterium tuberculosis; assay: Compound was evaluated for the synergistic effect in combination with capreomycin for the inhibition of Mycobacterium tuberculosis H 37 Ra, using middlebrook 7H9 medium (liquid)
[30] = system: Mycobacterium tuberculosis; assay: Fractional inhibitory concentration (FIC) was determined for the compound in combination of Ethionamide
[31] = system: Mycobacterium tuberculosis; assay: Compound was evaluated for the synergistic effect in combination with isoniazid for the inhibition of Mycobacterium tuberculosis H 37 Ra, using Lowenstein-Jensen medium (solid)
[32] = system: Mycobacterium tuberculosis; assay: Fractional inhibitory concentration (FIC) was determined for the compound in combination of Ethambutol
[33] = system: Mycobacterium tuberculosis; assay: Compound was evaluated for the synergistic effect in combination with dapsone for the inhibition of Mycobacterium tuberculosis H 37 Ra, using Lowenstein-Jensen medium (solid)
[34] = system: Mycobacterium tuberculosis; assay: Compound was evaluated for the synergistic effect in combination with trimethoprim for the inhibition of Mycobacterium tuberculosis H 37 Ra, using Lowenstein-Jensen medium (solid)
[35] = system: Mycobacterium tuberculosis; assay: Fractional inhibitory concentration (FIC) was determined for the compound in combination of Streptomycin sulfate
[36] = system: Mycobacterium tuberculosis; assay: Compound was evaluated for the synergistic effect in combination with benzaldehyde thiosemicarbazone for the inhibition of Mycobacterium tuberculosis H 37 Ra, using Lowenstein-Jensen medium (solid)
Mycobacterium avium = assay: Minimum inhibitory concentration (MIC) of compound against Mycobacterium avium SN 304
[37] = system: Mycobacterium tuberculosis; assay: Compound was evaluated for the synergistic effect in combination with streptomycin sulfate for the inhibition of Mycobacterium tuberculosis H 37 Ra, using Lowenstein-Jensen medium (solid)
[38] = system: Mycobacterium tuberculosis; assay: Compound was evaluated for the synergistic effect in combination with aminosalicylic acid for the inhibition of Mycobacterium tuberculosis H 37 Ra, using Lowenstein-Jensen medium (solid)
[39] = system: Mycobacterium tuberculosis; assay: Minimum inhibitory concentration (MIC) of compound against Mycobacterium tuberculosis H 37 Rv

With `CNCc1cc(Cl)cc(Cl)c1.Cl` the FIC index [1] was 0.25, the FIC index [2] was 0.031 and the MIC [3] was 0.1 mg/L. It also gave an FIC index [4] of 1, an MIC [5] of 5 mg/L and an FIC index [6] of 0.5. It also gave an MIC [7] of 0.05 mg/L, an MIC (Mycobacterium marinum) of 4 mg/L and an FIC index [8] of 1. The MIC [9] was 1 mg/L, the MIC [10] was 25.6 mg/L and the MIC [11] was 2 mg/L. It also gave an MIC [12] of 4.47 mg/L, an MIC [13] of 6.4 mg/L and an MIC [14] of 7.68 mg/L. For the same compound, the MIC [15] was 0.512 mg/L, the MIC [16] was 32 mg/L and the FIC index [17] was 1. The MIC [18] was 0.1 mg/L, the MIC [19] was 256 mg/L and the MIC [20] was 0.1 mg/L. For the same compound, the MIC [21] was 1 mg/L, the FIC index [22] was 1 and the FIC index [23] was 0.0625. For the same compound, the FIC index [24] was 0.5, the MIC [25] was 32 mg/L and the MIC [26] was 32 mg/L. For the same compound, the MIC [27] was 0.01 mg/L, the MIC [28] was 10.2 mg/L and the MIC (Mycobacterium lufu) was 4 mg/L. The MIC [29] was 0.5 mg/L, the FIC index [30] was 1 and the MIC [31] was 0.03 mg/L. It also gave an FIC index [32] of 1, an MIC [33] of 5.12 mg/L and an MIC [34] of 179 mg/L. It also gave an FIC index [35] of 0.125, an MIC [36] of 0.179 mg/L and an MIC (Mycobacterium avium) of 4 mg/L. For the same compound, the MIC [37] was 7.68 mg/L, the MIC [38] was 0.025 mg/L and the MIC [39] was 3 mg/L.
